PMC11273453, “Pentaphosphorylation via the Anhydride of Dihydrogen Pentametaphosphate: Access to Nucleoside Hexa- and Heptaphosphates and Study of Their Interaction with Ribonuclease A” (ACS Central Science, 2024)

Assays:
Ribonuclease A (RNase A) [1] = target: T1, Ribonuclease A (RNase A) (Bos taurus, UniProt P61823); assay: […]{1H} NMR competition titration with RNase A·p3A (binding constant Ka); settings: read-out: 31P{1H} NMR competition titration with RNase A.p3A (binding constant Ka) (converted)
T1 construct: gene RNASE1
T1 sequence (P61823 27-150): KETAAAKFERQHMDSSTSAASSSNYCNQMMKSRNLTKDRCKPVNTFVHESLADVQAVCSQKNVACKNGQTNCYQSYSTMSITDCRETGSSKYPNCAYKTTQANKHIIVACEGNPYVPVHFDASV

Ribonuclease A (RNase A) [2] = target: T1, Ribonuclease A (RNase A); assay: X-ray cocrystal structure (soaking); FRET inhibition assay (Ki); […] NMR titration; format: biochemical
Ribonuclease A (RNase A) [3] = target: T1, Ribonuclease A (RNase A); assay: direct […]{1H} NMR titration (binding constant Ka); settings: read-out: direct 31P{1H} NMR titration (binding constant Ka) (converted)
Ribonuclease A (RNase A) [4] = target: T1, Ribonuclease A (RNase A); assay: X-ray cocrystal structure; RNase A inhibition assay (Ki); format: biochemical

O=c1ccn([C@@H]2O[C@H](COP(=O)(O)OP(=O)(O)OP(=O)(O)OP(=O)(O)OP(=O)(O)O)[C@@H](O)[C@H]2O)c(=O)[nH]1 [p5U]
Kd (Ribonuclease A (RNase A) [1]): 53.8 nM

O=c1ccn([C@H]2O[C@@H](COP(=O)(O)OP(=O)(O)OP(=O)(O)OP(=O)(O)OP(=O)(O)OP(=O)(O)OP(=O)(O)O)[C@@H](O)[C@H]2O)c(=O)[nH]1 [p7U]
Ki (Ribonuclease A (RNase A) [2]): 1000 ± 200 nM

O=c1ccn([C@@H]2O[C@H](COP(=O)(O)OP(=O)(O)OP(=O)(O)OP(=O)(O)OP(=O)(O)OP(=O)(O)O)[C@@H](O)[C@H]2O)c(=O)[nH]1 [p6U]
Ki (Ribonuclease A (RNase A) [2]): 1100 ± 200 nM

O=P1(O)OP(=O)(O)OP(=O)(O)OP(=O)(O)O1 [cP4i, tetrametaphosphate]
Kd (Ribonuclease A (RNase A) [3]): 23500 nM

Nc1ncnc2c1ncn2[C@@H]1O[C@H](COP(=O)(O)OP(=O)(O)OP(=O)(O)OP(=O)(O)OP(=O)(O)OP(=O)(O)O)[C@@H](O)[C@H]1O [p6A]
Ki (Ribonuclease A (RNase A) [4]): 3600 ± 600 nM

Nc1ncnc2c1ncn2[C@@H]1O[C@H](COP(=O)(O)OP(=O)(O)OP(=O)(O)OP(=O)(O)OP(=O)(O)OP(=O)(O)OP(=O)(O)O)[C@@H](O)[C@H]1O [p7A]
Ki (Ribonuclease A (RNase A) [4]): 2600 ± 400 nM
